Assay results published in ChEMBL document CHEMBL1955749, “Synthesis and anti-influenza activity of aminoalkyl rupestonates” (Bioorg Med Chem Lett, 2012).
Calls of active or inactive are those of the source. The calls are words filed in the database; no cut-off is given here.

Tests used:
Influenza A virus [1] = test: Antiinfluenza activity against influenza A virus H3N2 infected in MDCK cells assessed as inhibition of virus-induced cytopathic effect after 36 hrs; type: functional, organism-based
Influenza A virus [2] = test: Antiinfluenza activity against influenza A virus H1N1 infected in MDCK cells assessed as inhibition of virus-induced cytopathic effect after 36 hrs; type: functional, organism-based
Influenza B virus = test: Antiinfluenza activity against influenza B virus infected in MDCK cells assessed as inhibition of virus-induced cytopathic effect after 36 hrs; type: functional, organism-based
[3] = Cytotoxicity against MDCK cells; type: cell-based, Canis lupus familiaris; details: dog, read-out: TC50 (the source's name)
[4] = Selectivity index, ratio of TC50 for MDCK cells to IC50 for influenza A virus H3N2; type: toxicity, cell-based; details: dog, read-out: Selectivity Index
[5] = Selectivity index, ratio of TC50 for MDCK cells to IC50 for influenza A virus H1N1; type: toxicity, cell-based; details: dog, read-out: Selectivity Index
Influenza A virus [6] = test: Antiinfluenza activity against influenza A virus H3N2 infected in MDCK cells assessed as inhibition of virus-induced cytopathic effect at 0.15 to 1.37 ug/ml after 36 hrs; type: functional, organism-based
[7] = Selectivity index, ratio of TC50 for MDCK cells to IC50 for influenza B virus; type: toxicity, cell-based; details: dog, read-out: Selectivity Index
Influenza A virus [8] = test: Antiinfluenza activity against influenza A virus; type: functional, organism-based

Structure (SMILES): C=C(C(=O)OCCCCCCCCCCBr)[C@@H]1CC[C@H](C)[C@@H]2CC(=O)C(C)=C2C1
- IC50 (Influenza A virus [1]): 16.4 µM
- IC50 (Influenza A virus [2]): 6.7 µM
- IC50 (Influenza B virus): > 26.5 µM
- CC50 [3]: 138 µM
- selectivity ratio [4]: 8.4
- selectivity ratio [5]: 20.5
- inhibition (Influenza A virus [6]): Active

Structure (SMILES): C=C(C(=O)O)[C@@H]1CC[C@H](C)[C@@H]2CC(=O)C(C)=C2C1 [PECHUELOIC ACID]
- IC50 (Influenza A virus [1]): 25.8 µM
- IC50 (Influenza A virus [2]): > 1340 µM
- IC50 (Influenza B virus): > 4030 µM
- CC50 [3]: 4650 µM
- selectivity ratio [4]: 181

Structure (SMILES): C=C(C(=O)OCCCn1cncn1)[C@@H]1CC[C@H](C)[C@@H]2CC(=O)C(C)=C2C1
- IC50 (Influenza A virus [1]): 34.6 µM
- IC50 (Influenza A virus [2]): 24 µM
- IC50 (Influenza B virus): > 34.6 µM
- CC50 [3]: 311 µM
- selectivity ratio [4]: 9
- selectivity ratio [5]: 13

Structure (SMILES): C=C(C(=O)OCCCCCCBr)[C@@H]1CC[C@H](C)[C@@H]2CC(=O)C(C)=C2C1
- IC50 (Influenza A virus [1]): 52.1 µM
- IC50 (Influenza A virus [2]): 39.6 µM
- IC50 (Influenza B virus): 52.1 µM
- CC50 [3]: 469 µM
- selectivity ratio [4]: 9
- selectivity ratio [5]: 11.8
- selectivity ratio [7]: 9

Structure (SMILES): C=C(C(=O)OCCCCCN1CCN(c2ccccc2)CC1)[C@@H]1CC[C@H](C)[C@@H]2CC(=O)C(C)=C2C1
- IC50 (Influenza A virus [1]): > 25.7 µM
- IC50 (Influenza A virus [2]): 20 µM
- IC50 (Influenza B virus): > 25.8 µM
- CC50 [3]: 112 µM
- selectivity ratio [5]: 5.6

Structure (SMILES): C=C(C(=O)OCCCCN1CCN(C)CC1)[C@@H]1CC[C@H](C)[C@@H]2CC(=O)C(C)=C2C1
- IC50 (Influenza A virus [1]): 71.5 µM
- IC50 (Influenza A virus [2]): 10.3 µM
- IC50 (Influenza B virus): > 92.1 µM
- CC50 [3]: 644 µM
- selectivity ratio [4]: 9
- selectivity ratio [5]: 62.8

Structure (SMILES): C=C(C(=O)OCCCCn1cncn1)[C@@H]1CC[C@H](C)[C@@H]2CC(=O)C(C)=C2C1
- IC50 (Influenza A virus [1]): 42.9 µM
- IC50 (Influenza A virus [2]): 57.6 µM
- IC50 (Influenza B virus): 77.5 µM
- CC50 [3]: 386 µM
- selectivity ratio [4]: 9
- selectivity ratio [5]: 6.7
- selectivity ratio [7]: 5

Structure (SMILES): C=C(C(=O)O)[C@@H]1CC[C@H](C)[C@@H]2CC(=O)C(C)=C2C1c1ccc(C(C)(C)C)cc1 (some centres undefined)
- IC50 (Influenza A virus [8]): 0.5 µM

Structure (SMILES): C=C(C(=O)OCCCCCCCCN1CCN(C)CC1)[C@@H]1CC[C@H](C)[C@@H]2CC(=O)C(C)=C2C1
- IC50 (Influenza A virus [1]): > 26.9 µM
- IC50 (Influenza A virus [2]): > 26.9 µM
- IC50 (Influenza B virus): > 26.9 µM
- CC50 [3]: 188 µM

Structure (SMILES): C=C(C(=O)OCCCCN1CCN(c2ccccc2)CC1)[C@@H]1CC[C@H](C)[C@@H]2CC(=O)C(C)=C2C1
- IC50 (Influenza A virus [1]): > 79.8 µM
- IC50 (Influenza A virus [2]): 79.8 µM
- IC50 (Influenza B virus): > 79.8 µM
- CC50 [3]: 415 µM
- selectivity ratio [5]: 5.2

Structure (SMILES): C=C(C(=O)OCCCCBr)[C@@H]1CC[C@H](C)[C@@H]2CC(=O)C(C)=C2C1
- IC50 (Influenza A virus [1]): 75.2 µM
- IC50 (Influenza A virus [2]): 75.2 µM
- IC50 (Influenza B virus): 67.2 µM
- CC50 [3]: 420 µM
- selectivity ratio [4]: 5.6
- selectivity ratio [5]: 5.6
- selectivity ratio [7]: 6.2

Structure (SMILES): C=C(C(=O)OCCCCCN1CCN(C)CC1)[C@@H]1CC[C@H](C)[C@@H]2CC(=O)C(C)=C2C1
- IC50 (Influenza A virus [1]): 20.6 µM
- IC50 (Influenza A virus [2]): 17.1 µM
- IC50 (Influenza B virus): 20.6 µM
- CC50 [3]: 207 µM
- selectivity ratio [4]: 10.1
- selectivity ratio [5]: 12.1
- selectivity ratio [7]: 10.1

Structure (SMILES): C=C(C(=O)OCCCCCCCCBr)[C@@H]1CC[C@H](C)[C@@H]2CC(=O)C(C)=C2C1
- IC50 (Influenza A virus [1]): 14.1 µM
- IC50 (Influenza A virus [2]): 12.4 µM
- IC50 (Influenza B virus): > 28.2 µM
- CC50 [3]: 146 µM
- selectivity ratio [4]: 10.4
- selectivity ratio [5]: 11.8

Structure (SMILES): C=C(C(=O)OCCCN1CCN(c2ccccc2)CC1)[C@@H]1CC[C@H](C)[C@@H]2CC(=O)C(C)=C2C1
- IC50 (Influenza A virus [1]): 57.1 µM
- IC50 (Influenza A virus [2]): 63.9 µM
- IC50 (Influenza B virus): > 11.2 µM
- CC50 [3]: 171 µM
- selectivity ratio [4]: 3
- selectivity ratio [5]: 2.7

Structure (SMILES): C=C(C(=O)OCCN1CCN(C)CC1)[C@@H]1CC[C@H](C)[C@@H]2CC(=O)C(C)=C2C1
- IC50 (Influenza A virus [1]): > 33 µM
- IC50 (Influenza A virus [2]): 129 µM
- IC50 (Influenza B virus): > 33 µM
- CC50 [3]: 231 µM
- selectivity ratio [5]: 1.8

Structure (SMILES): C=C(C(=O)OCCCCCCN1CCN(C)CC1)[C@@H]1CC[C@H](C)[C@@H]2CC(=O)C(C)=C2C1
- IC50 (Influenza A virus [1]): > 9.6 µM
- IC50 (Influenza A virus [2]): > 9.6 µM
- IC50 (Influenza B virus): > 9.6 µM
- CC50 [3]: 86 µM

Structure (SMILES): C=C(C(=O)OCCCCCCn1cncn1)[C@@H]1CC[C@H](C)[C@@H]2CC(=O)C(C)=C2C1
- IC50 (Influenza A virus [1]): 14.9 µM
- IC50 (Influenza A virus [2]): 48.2 µM
- IC50 (Influenza B virus): > 31 µM
- CC50 [3]: 120 µM
- selectivity ratio [4]: 8
- selectivity ratio [5]: 2.48
